According to US20240270792A1, “SHORT ANTIMICROBIAL PEPTIDES” (priority 2021, published 2024):
In brackets after ≈: the same amount, converted by molar mass. Square brackets hold non-standard residues; d marks the D form. Ends that are not written are not given here. Peptide text beside a SMILES is read from it. hPhe = N[C@@H](CCc1ccccc1)C(=O)O; αMeF = C[C@](N)(Cc1ccccc1)C(=O)O

Tests used:
[1] = Cytotoxicity assay: hemolysis of erythrocytes; assay type: cell-based; conditions: 50% hemolysis, human erythrocytes, 1 h at 37° C., pH 7.4; read-out: LC50 Erythrocytes Human
Procedure: Hemolytic experiments were performed using human erythrocytes obtained from healthy adult donors (Etablissement Français du sang, Paris, France) according to a previously described protocol (Abbassi et al., “Isolation, characterization and molecular cloning of new temporins from the skin of the North African ranid Pelophylax saharica”, Peptides, 2008, 29: 1526-33).
Briefly, synthetic peptides (1-200 μM, final concentrations) were incubated (100 μL, final volume) with erythrocytes (2×10^7 cells) in Dulbecco's phosphate-buffered saline (pH 7.4) for 1 h at 37° C. After centrifugation (12,000×g, 15 s), the absorbance of the supernatant was measured at 450 nm.

Staphylococcus aureus = assay type: cell-based; conditions: Gram-positive, 18-24 hrs at 37° C.
Text: (§1) The following strains were used: • Gram-negative bacteria: Escherichia coli ATCC 25922, Pseudomonas aeruginosa ATCC 27853, Acinetobacter baumannii ATCC 19606, Klebsiella pneumoniae ATCC 13883, • Gram-positive bacteria: Staphylococcus aureus ATCC 25923, multi-drug resistant Staphylococcus aureus ATCC BAA-44, Streptococcus pyogenes ATCC 19615, Listeria ivanovii Li4pVS2, Enterococcus faecalis ATCC 29212,
(§2) For each strain, a standard inoculum of approximately 10^6 bacteria/mL (exponential growth phase) was prepared. To this end, a colony isolated on LB agar previously inoculated with one of the strains was cultured in 4 ml of LB broth medium, except for S. pyogenes and L. ivanovii which were grown in BHI (Brain Heart Infusion) from a colony isolated on BHI agar. Liquid cultures were then incubated for 2 to 3 hrs at 37° C. with shaking for the bacteria to reach exponential growth phase. After centrifugation, most of the bacterial suspensions were diluted in Mueller-Hinton (MH) broth medium to an OD630nm of 0.01, which corresponds to a concentration of approximately 10^6 cfu/mL (cfu: colony forming unit). A different medium was used for E. faecalis (LB) and for S. pyogenes and L. ivanovii (BHI).
(§3) The minimum inhibitory concentration (MIC) of each peptide was determined by a test of growth inhibition in broth medium. […] The test was performed in a sterile 96-well microtiter plate. A series of increasing concentrations of peptide (2 to 400 μM) was first prepared in sterile MilliQ water. 50 μL of each peptide concentration were mixed into the well with 50 μL of bacterial suspension (10^6 cfu/ml). The microtiter plate was then incubated for 18-24 hrs at 37° C. with shaking. Bacterial growth was determined by measuring OD at 630 nm (turbidity) on a plate reader. Tests were carried out in triplicate for each peptide concentration and at least three independent experiments were performed to determine the MIC value.
(§4) The growth inhibition negative control was obtained by replacing the solution containing the peptide with 50 μL of sterile MilliQ water. The positive control allowing the complete inhibition of bacterial growth was obtained by replacing the solution containing the peptide with 50 μL, of 0.7% formaldehyde.

[2] = test system: Listeria ivanovii Li4pVS2; assay type: cell-based; conditions: Gram-positive, BHI, 18-24 hrs at 37° C.
Text: as §1, §2, §3, §4

[3] = test system: Acinetobacter baumannii ATCC 19606; assay type: cell-based; conditions: Gram-negative, 18-24 hrs at 37° C.
Text: as §1, §2, §3, §4

[4] = test system: Pseudomonas aeruginosa ATCC 27853; assay type: cell-based; conditions: Gram-negative, 18-24 hrs at 37° C.
Text: as §1, §2, §3, §4

[5] = test system: Escherichia coli ATCC 25922; assay type: cell-based; conditions: Gram-negative, 18-24 hrs at 37° C.
Text: as §1, §2, §3, §4

[6] = test system: Enterococcus faecalis ATCC 29212; assay type: cell-based; conditions: Gram-positive, LB, 18-24 hrs at 37° C.
Text: as §1, §2, §3, §4

[7] = test system: Streptococcus pyogenes ATCC 19615; assay type: cell-based; conditions: Gram-positive, BHI, 18-24 hrs at 37° C.
Text: as §1, §2, §3, §4

[8] = test system: Klebsiella pneumoniae ATCC 13883; assay: MIC, growth inhibition in broth medium; assay type: cell-based; conditions: Gram-negative, 18-24 hrs at 37° C.
Text: as §1
as §2, with “A different medium was used for E. faecalis (LB) and for S. pyogenes and L. ivanovii (BHI).” left out
The minimum inhibitory concentration (MIC) of each peptide was determined by a test of growth inhibition in broth medium. […] Bacterial growth was determined by measuring OD at 630 nm (turbidity) on a plate reader. […]

[9] = test system: Gram-positive and Gram-negative bacteria; conditions: cited from earlier work

| Molecule | HC50 at 1 h [1] [µM] | MIC SA (Staphylococcus aureus) [µM] | MIC LI [2] [µM] | MIC AB [3] [µM] | MIC PA [4] [µM] | MIC EC [5] [µM] | MIC EF [6] [µM] | MIC SP [7] [µM] | MIC KP [8] [µM] | CC50 at 1 h [1] [µM] | antimicrobial activity [9] |
| --- | --- | --- | --- | --- | --- | --- | --- | --- | --- | --- | --- |
| CC[C@H](C)[C@H](NC(=O)[C@H](CCCNC(=N)N)NC(=O)[C@H](CO)NC(=O)[C@H](CC(C)C)NC(=O)[C@H](Cc1ccccc1)NC(=O)[C@H](Cc1ccccc1)NC(=O)[C@@H](N)Cc1ccccc1)C(=O)N[C@@H](Cc1ccccc1)C(N)=O [compound 2] | > 200 | 25 (≈ 26.9 µg/mL) | 50 (≈ 53.8 µg/mL) | >100 | >100 | 50 (≈ 53.8 µg/mL) | 100 (≈ 108 µg/mL) | 25 (≈ 26.9 µg/mL) |  |  |  |
| CC[C@H](C)[C@H](NC(=O)[C@H](CCCNC(=N)N)NC(=O)[C@H](CCCNC(=N)N)NC(=O)[C@H](CC(C)C)NC(=O)[C@H](CCc1ccccc1)NC(=O)[C@H](Cc1ccccc1)NC(=O)[C@@H](N)Cc1ccccc1)C(=O)N[C@@H](Cc1ccccc1)C(N)=O [compound 19] | 170 | 6.25 (≈ 7.24 µg/mL) |  | 25 (≈ 29 µg/mL) | 25 (≈ 29 µg/mL) | 12.5 (≈ 14.5 µg/mL) |  | 12.5 (≈ 14.5 µg/mL) |  |  |  |
| N=C(N)NCCC[C@H](NC(=O)[C@H](CCCNC(=N)N)NC(=O)[C@H](Cc1ccccc1)NC(=O)[C@H](Cc1ccccc1)NC(=O)[C@H](Cc1ccccc1)NC(=O)[C@@H](N)Cc1ccccc1)C(=O)N[C@@H](Cc1ccccc1)C(=O)N[C@@H](Cc1ccccc1)C(N)=O [compound 39] | > 200 | 6.25 (≈ 7.58 µg/mL) | 12.5 (≈ 15.2 µg/mL) | 25 (≈ 30.3 µg/mL) | 12.5 (≈ 15.2 µg/mL) | 12.5 (≈ 15.2 µg/mL) | 50 (≈ 60.6 µg/mL) | 3 (≈ 3.64 µg/mL) |  |  |  |
| N=C(N)NCCC[C@H](NC(=O)[C@H](CCCNC(=N)N)NC(=O)[C@H](Cc1ccccc1)NC(=O)[C@H](CCCNC(=N)N)NC(=O)[C@H](Cc1ccccc1)NC(=O)[C@@H](N)Cc1ccccc1)C(=O)N[C@@H](Cc1ccccc1)C(=O)N[C@@H](Cc1ccccc1)C(N)=O [compound 50] | > 200 | 6.25 (≈ 7.63 µg/mL) |  | 100 (≈ 122 µg/mL) | 12.5 (≈ 15.3 µg/mL) |  | 100 (≈ 122 µg/mL) | 6.25 (≈ 7.63 µg/mL) |  |  |  |
| N=C(N)NCCC[C@H](NC(=O)[C@H](CCCNC(=N)N)NC(=O)[C@H](Cc1ccccc1)NC(=O)[C@H](Cc1ccccc1)NC(=O)[C@H](CCc1ccccc1)NC(=O)[C@@H](N)Cc1ccccc1)C(=O)N[C@@H](Cc1ccccc1)C(=O)N[C@@H](Cc1ccccc1)C(N)=O [compound 51] (H-F[hPhe]FFRRFF-NH2; N-terminus assumed) |  |  |  |  |  |  |  |  | 25 (≈ 30.7 µg/mL) | 159 |  |
| N=C(N)NCCC[C@H](NC(=O)[C@H](CCCNC(=N)N)NC(=O)[C@H](Cc1ccccc1)NC(=O)[C@H](CCc1ccccc1)NC(=O)[C@H](Cc1ccccc1)NC(=O)[C@@H](N)Cc1ccccc1)C(=O)N[C@@H](Cc1ccccc1)C(=O)N[C@@H](Cc1ccccc1)C(N)=O [compound 53] | 140 | 3 (≈ 3.68 µg/mL) |  | 12.5 (≈ 15.3 µg/mL) | 12.5 (≈ 15.3 µg/mL) | 12.5 (≈ 15.3 µg/mL) | 50 (≈ 61.3 µg/mL) | 6.25 (≈ 7.67 µg/mL) |  |  |  |
| FF(α-MeF)LSRIFamide (FF[αMeF]LSRIF-NH2; N-terminus assumed; SMILES CC[C@H](C)[C@H](NC(=O)[C@H](CCCNC(=N)N)NC(=O)[C@H](CO)NC(=O)[C@H](CC(C)C)NC(=O)[C@](C)(Cc1ccccc1)NC(=O)[C@H](Cc1ccccc1)NC(=O)[C@@H](N)Cc1ccccc1)C(=O)N[C@@H](Cc1ccccc1)C(N)=O) [SEQ ID No 7, excluded known SHf analog] |  |  |  |  |  |  |  |  |  |  | strong activity against Gram-positive and Gram-negative bacteria, including Klebsiella pneumoniae |
| FFFFKRFF-NH2 [compound 42] | > 200 | 6.25 |  |  | 12.5 |  | >100 | 12.5 |  |  |  |
| FFFFRKFF-NH2 [compound 43] | > 200 |  |  | 12.5 | 12.5 |  | 100 | 12.5 |  |  |  |
| FFFFSRFF-NH2 [compound 34] | > 200 | 12.5 | 25 | >100 | >100 | >100 | 100 | 6.25 |  |  |  |
| FFFRRRFF-NH2 [compound 38] | > 200 |  |  | 100 | 25 | 25 | >100 | 12.5 |  |  |  |
| FFRRFFFF-NH2 [compound 41] | > 200 | 6.25 |  | 12.5 | 12.5 | 12.5 | 50 | 6.25 |  |  |  |
| FRFFRRFF-NH2 [compound 49] | > 200 |  |  |  | 6.25 |  | >100 | 25 |  |  |  |
| FRFRFRFF-NH2 [compound 55] | > 200 | 3 |  |  |  |  | >100 | 12.5 |  |  |  |
| FRFRFRFR-NH2 [compound 56] | > 200 |  |  | 25 |  | 3 | 30 | 6.25 |  |  |  |
| RFFFRRFF-NH2 [compound 72] | > 200 | 6.25 |  | 100 | 12.5 |  | >100 | 25 |  |  |  |
